Measured values from ChEMBL document CHEMBL1201862, “PubChem BioAssay data set” (2004).
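Five compound concentrations were applied to cells in 96-well plates for 48 hours; endpoints were derived by simple linear interpolation of the resulting dose-response curve. Abbreviation: GI50, concentration required for 50% inhibition of growth.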 The source made the active and inactive calls. Cut-off read from the data, not from the text of the source: active = GI50 up to about 1.1 µM and inactive = higher.

Legend:
Assay in all cases: NCI-60 cell line screen, 48 h
[1] = test system: ACHN
[2] = test system: EKVX
[3] = test system: OVCAR-5
[4] = test system: OVCAR-4
[5] = test system: HT-29
[6] = test system: U-251
[7] = test system: SNB-19
[8] = test system: OVCAR-3
[9] = test system: NCI-H460
[10] = test system: SNB-75
[11] = test system: UACC-62
[12] = test system: Hs-578T
[13] = test system: SN12C
[14] = test system: A498
[15] = test system: SF-268
[16] = test system: DU-145
[17] = test system: CCRF-CEM
[18] = test system: HOP-92
[19] = test system: Malme-3M
[20] = test system: RXF 393

Row | SMILES | GI50 [1] | GI50 [2] | GI50 [3] | GI50 [4] | GI50 [5] | GI50 [6] | GI50 [7] | GI50 [8] | GI50 [9] | GI50 [10] | GI50 [11] | GI50 [12] | GI50 [13] | GI50 [14] | GI50 [15] | GI50 [16] | GI50 [17] | GI50 [18] | GI50 [19] | GI50 [20]
1 | COc1cc([N+](=O)[O-])ccc1NC(=O)C(F)(F)F | > 100 µM (inactive) | > 100 µM (inactive) | > 100 µM (inactive) | > 100 µM (inactive) | 65.3 µM (inactive) | > 100 µM (inactive) | > 100 µM (inactive) | > 100 µM (inactive) | > 100 µM (inactive) | > 100 µM (inactive) | 43.1 µM (inactive) | > 100 µM (inactive) | > 100 µM (inactive) | > 100 µM (inactive) | > 100 µM (inactive) | > 100 µM (inactive) | > 100 µM (inactive) | – | – | –
2 | COc1ccc(/C=N/NC(=O)c2ccccc2Nc2ccccc2C(=O)N/N=C/c2ccc(OC)cc2)cc1 | > 100 µM (inactive) | > 100 µM (inactive) | > 100 µM (inactive) | > 100 µM (inactive) | > 100 µM (inactive) | > 100 µM (inactive) | > 100 µM (inactive) | > 100 µM (inactive) | > 100 µM (inactive) | > 100 µM (inactive) | > 100 µM (inactive) | – | > 100 µM (inactive) | > 100 µM (inactive) | > 100 µM (inactive) | > 100 µM (inactive) | > 100 µM (inactive) | > 100 µM (inactive) | > 100 µM (inactive) | > 100 µM (inactive)
3 | CCc1ccccc1NC(=O)c1cccc([N+](=O)[O-])c1O | 18.1 µM (inactive) | 30.8 µM (inactive) | 17.9 µM (inactive) | 16.7 µM (inactive) | 26.5 µM (inactive) | 23 µM (inactive) | 41.7 µM (inactive) | 26.7 µM (inactive) | 20.8 µM (inactive) | 20.9 µM (inactive) | 9.93 µM (inactive) | – | 31 µM (inactive) | 25.3 µM (inactive) | 25.2 µM (inactive) | – | 28.2 µM (inactive) | 14.4 µM (inactive) | 24.4 µM (inactive) | 8.51 µM (inactive)
4 | COc1ccc(-c2c(C#N)c(-c3ccc(C)cc3)n(NS(=O)(=O)c3ccc(C)cc3)c(=O)c2C#N)cc1 | 50.6 µM (inactive) | 53.5 µM (inactive) | > 100 µM (inactive) | 31.3 µM (inactive) | 44.1 µM (inactive) | 53.6 µM (inactive) | 47.4 µM (inactive) | – | 54.3 µM (inactive) | 31.2 µM (inactive) | 43.6 µM (inactive) | 25.1 µM (inactive) | 66.2 µM (inactive) | 92 µM (inactive) | 56.6 µM (inactive) | – | 23.7 µM (inactive) | 74.6 µM (inactive) | > 100 µM (inactive) | 38.8 µM (inactive)
5 | CC(C)(C)c1cc(S(=O)(=O)O)c2oc(-c3ccccc3)cc(=O)c2c1 | > 100 µM (inactive) | > 100 µM (inactive) | – | – | > 100 µM (inactive) | > 100 µM (inactive) | > 100 µM (inactive) | > 100 µM (inactive) | > 100 µM (inactive) | > 100 µM (inactive) | – | > 100 µM (inactive) | > 100 µM (inactive) | – | > 100 µM (inactive) | > 100 µM (inactive) | > 100 µM (inactive) | – | > 100 µM (inactive) | > 100 µM (inactive)
6 | COc1cc([N+](=O)[O-])c(S(=O)(=O)O)cc1N | > 100 µM (inactive) | > 100 µM (inactive) | > 100 µM (inactive) | > 100 µM (inactive) | > 100 µM (inactive) | > 100 µM (inactive) | > 100 µM (inactive) | > 100 µM (inactive) | > 100 µM (inactive) | > 100 µM (inactive) | > 100 µM (inactive) | > 100 µM (inactive) | > 100 µM (inactive) | > 100 µM (inactive) | > 100 µM (inactive) | > 100 µM (inactive) | > 100 µM (inactive) | – | – | –
7 | CC(=O)/C=C\C(=O)NNS(=O)(=O)c1ccc(C)cc1 | > 100 µM (inactive) | > 100 µM (inactive) | > 100 µM (inactive) | > 100 µM (inactive) | > 100 µM (inactive) | > 100 µM (inactive) | > 100 µM (inactive) | > 100 µM (inactive) | > 100 µM (inactive) | > 100 µM (inactive) | > 100 µM (inactive) | – | > 100 µM (inactive) | > 100 µM (inactive) | > 100 µM (inactive) | – | > 100 µM (inactive) | > 100 µM (inactive) | > 100 µM (inactive) | > 100 µM (inactive)
8 | CCCN(CCCCC(NC(C)=O)C(=O)NCc1ccccc1)C(=O)NC (configuration not stated) | > 100 µM (inactive) | > 100 µM (inactive) | > 100 µM (inactive) | > 100 µM (inactive) | > 100 µM (inactive) | > 100 µM (inactive) | > 100 µM (inactive) | > 100 µM (inactive) | > 100 µM (inactive) | 95.7 µM (inactive) | > 100 µM (inactive) | – | > 100 µM (inactive) | > 100 µM (inactive) | > 100 µM (inactive) | – | > 100 µM (inactive) | > 100 µM (inactive) | > 100 µM (inactive) | > 100 µM (inactive)
9 | CCC/C(=N\NC(=O)c1cc2ccccc2cc1O)C(CC)C(=O)CCC(=O)N(Cc1ccccc1)Cc1ccccc1 (configuration not stated) | 33.5 µM (inactive) | 32 µM (inactive) | 36.2 µM (inactive) | 59 µM (inactive) | 83.2 µM (inactive) | 57 µM (inactive) | 27.7 µM (inactive) | 20.5 µM (inactive) | 35.6 µM (inactive) | 9.73 µM (inactive) | 11.2 µM (inactive) | – | 63.2 µM (inactive) | 85.9 µM (inactive) | 19.7 µM (inactive) | – | 7.62 µM (inactive) | 33.3 µM (inactive) | 50.1 µM (inactive) | 37 µM (inactive)
10 | Nc1ncnc2c1nnn2C1C=CC(CP(=O)(O)O)C1 (configuration not stated) | > 100 µM (inactive) | > 100 µM (inactive) | > 100 µM (inactive) | > 100 µM (inactive) | > 100 µM (inactive) | > 100 µM (inactive) | > 100 µM (inactive) | > 100 µM (inactive) | > 100 µM (inactive) | – | > 100 µM (inactive) | > 100 µM (inactive) | > 100 µM (inactive) | – | > 100 µM (inactive) | > 100 µM (inactive) | – | – | > 100 µM (inactive) | > 100 µM (inactive)
11 | Cc1cccc(-n2c(=S)[nH]c3c(sc(=O)n3-c3ccccc3C)c2=O)c1 | > 100 µM (inactive) | > 100 µM (inactive) | > 100 µM (inactive) | > 100 µM (inactive) | > 100 µM (inactive) | > 100 µM (inactive) | > 100 µM (inactive) | > 100 µM (inactive) | > 100 µM (inactive) | > 100 µM (inactive) | > 100 µM (inactive) | – | > 100 µM (inactive) | > 100 µM (inactive) | > 100 µM (inactive) | – | > 100 µM (inactive) | > 100 µM (inactive) | > 100 µM (inactive) | > 100 µM (inactive)
12 | C=C1C(=O)OC2/C=C(\C)CC(O)/C=C(/CO)CC(OC(=O)/C(C)=C/C)C12 (configuration not stated) | – | 23 µM (inactive) | 147 µM (inactive) | 117 µM (inactive) | 54.6 µM (inactive) | 86.1 µM (inactive) | 114 µM (inactive) | 29.9 µM (inactive) | 36 µM (inactive) | 133 µM (inactive) | 37.8 µM (inactive) | – | 131 µM (inactive) | 26.8 µM (inactive) | 46.8 µM (inactive) | – | 13.9 µM (inactive) | 30.9 µM (inactive) | 18.9 µM (inactive) | 14.4 µM (inactive)
13 | COC(=O)CP1(=O)OC2C(C3CCC2(C)C3(C)C)N1c1cc(C(F)(F)F)cc(C(F)(F)F)c1 (configuration not stated) | > 100 µM (inactive) | 30.5 µM (inactive) | 25.3 µM (inactive) | 13.5 µM (inactive) | 26.1 µM (inactive) | 26.1 µM (inactive) | 32.7 µM (inactive) | 15.2 µM (inactive) | 22.2 µM (inactive) | 15.7 µM (inactive) | > 100 µM (inactive) | – | – | > 100 µM (inactive) | 23 µM (inactive) | 31.3 µM (inactive) | – | – | 17.3 µM (inactive) | –
14 | CN(C)Cc1cc(/C(=C(\C#N)c2ccccc2)c2ccc(O)cc2)ccc1O | 13.9 µM (inactive) | 23.9 µM (inactive) | 26.2 µM (inactive) | 21.5 µM (inactive) | 15.4 µM (inactive) | 17.9 µM (inactive) | 28.8 µM (inactive) | 18.7 µM (inactive) | 19.6 µM (inactive) | 17.5 µM (inactive) | 17.8 µM (inactive) | – | 18.3 µM (inactive) | 32.2 µM (inactive) | 20 µM (inactive) | – | 18.4 µM (inactive) | 14.4 µM (inactive) | 16.1 µM (inactive) | 3.96 µM (inactive)
15 | CSc1nn(C)cc2ncnc1-2 | > 100 µM (inactive) | > 100 µM (inactive) | > 100 µM (inactive) | – | > 100 µM (inactive) | > 100 µM (inactive) | > 100 µM (inactive) | > 100 µM (inactive) | > 100 µM (inactive) | 0.206 µM (active) | > 100 µM (inactive) | > 100 µM (inactive) | > 100 µM (inactive) | > 100 µM (inactive) | > 100 µM (inactive) | > 100 µM (inactive) | > 100 µM (inactive) | – | – | > 100 µM (inactive)
16 | COC(=O)C(C#N)C1NC(=O)c2ccccc21 (configuration not stated) | > 100 µM (inactive) | > 100 µM (inactive) | > 100 µM (inactive) | > 100 µM (inactive) | > 100 µM (inactive) | > 100 µM (inactive) | > 100 µM (inactive) | > 100 µM (inactive) | > 100 µM (inactive) | 9.71 µM (inactive) | > 100 µM (inactive) | – | > 100 µM (inactive) | > 100 µM (inactive) | > 100 µM (inactive) | – | > 100 µM (inactive) | > 100 µM (inactive) | > 100 µM (inactive) | > 100 µM (inactive)
